This note sets out measurements from patent US6727250B2, “Carboxylic acid amides, pharmaceutical compositions containing these compounds, their use and preparation” (Boehringer Ingelheim Pharma KG, priority 1999, dated 2004).

T1 sequence (O14746 whole entry): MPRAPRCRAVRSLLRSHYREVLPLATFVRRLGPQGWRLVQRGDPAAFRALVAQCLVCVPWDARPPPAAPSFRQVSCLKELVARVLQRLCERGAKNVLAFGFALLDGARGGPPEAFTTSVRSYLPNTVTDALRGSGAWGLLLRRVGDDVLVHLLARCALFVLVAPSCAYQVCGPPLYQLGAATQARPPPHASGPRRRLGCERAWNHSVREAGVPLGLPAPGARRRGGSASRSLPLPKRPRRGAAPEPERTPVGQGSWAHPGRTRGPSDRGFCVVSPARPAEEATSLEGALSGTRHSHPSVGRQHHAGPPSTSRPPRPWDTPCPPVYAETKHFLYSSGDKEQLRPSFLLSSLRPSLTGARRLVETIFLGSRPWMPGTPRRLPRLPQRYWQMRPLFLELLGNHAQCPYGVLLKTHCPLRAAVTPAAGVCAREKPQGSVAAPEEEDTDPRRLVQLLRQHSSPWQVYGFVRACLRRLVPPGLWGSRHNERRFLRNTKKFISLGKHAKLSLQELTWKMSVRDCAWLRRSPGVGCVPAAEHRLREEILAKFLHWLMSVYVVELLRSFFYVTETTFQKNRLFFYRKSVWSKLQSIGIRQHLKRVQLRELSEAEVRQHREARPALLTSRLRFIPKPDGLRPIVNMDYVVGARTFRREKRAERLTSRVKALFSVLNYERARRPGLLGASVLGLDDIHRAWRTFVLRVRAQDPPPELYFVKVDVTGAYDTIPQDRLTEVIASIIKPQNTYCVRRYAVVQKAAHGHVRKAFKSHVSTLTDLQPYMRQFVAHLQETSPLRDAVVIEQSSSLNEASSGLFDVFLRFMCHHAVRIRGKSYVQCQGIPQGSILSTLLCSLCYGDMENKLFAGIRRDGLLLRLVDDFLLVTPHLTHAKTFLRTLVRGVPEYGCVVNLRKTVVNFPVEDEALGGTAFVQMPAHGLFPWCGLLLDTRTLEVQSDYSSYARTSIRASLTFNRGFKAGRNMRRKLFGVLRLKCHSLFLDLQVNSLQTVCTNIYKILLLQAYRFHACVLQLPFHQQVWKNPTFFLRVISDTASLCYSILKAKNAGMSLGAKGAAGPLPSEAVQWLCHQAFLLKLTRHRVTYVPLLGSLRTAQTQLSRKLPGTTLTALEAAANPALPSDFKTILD
T1 sequence (O60832 whole entry partner): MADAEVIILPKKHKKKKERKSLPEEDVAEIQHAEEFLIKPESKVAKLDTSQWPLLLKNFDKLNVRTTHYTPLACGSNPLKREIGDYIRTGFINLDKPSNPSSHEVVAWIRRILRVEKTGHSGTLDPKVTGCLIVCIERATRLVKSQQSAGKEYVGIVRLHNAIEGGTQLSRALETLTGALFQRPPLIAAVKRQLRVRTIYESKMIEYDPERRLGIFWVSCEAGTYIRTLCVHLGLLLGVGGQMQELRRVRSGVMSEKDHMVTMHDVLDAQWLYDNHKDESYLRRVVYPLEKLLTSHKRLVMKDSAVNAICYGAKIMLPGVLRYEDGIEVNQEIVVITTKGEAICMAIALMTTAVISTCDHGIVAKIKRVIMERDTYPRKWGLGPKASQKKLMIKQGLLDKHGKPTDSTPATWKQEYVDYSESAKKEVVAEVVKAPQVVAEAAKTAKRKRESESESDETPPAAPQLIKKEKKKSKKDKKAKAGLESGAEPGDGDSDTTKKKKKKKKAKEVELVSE
T1 sequence (Q9NPE3 whole entry partner): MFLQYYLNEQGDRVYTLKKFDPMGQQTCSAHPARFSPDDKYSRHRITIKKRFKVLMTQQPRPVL
T1 sequence (Q9NX24 whole entry partner): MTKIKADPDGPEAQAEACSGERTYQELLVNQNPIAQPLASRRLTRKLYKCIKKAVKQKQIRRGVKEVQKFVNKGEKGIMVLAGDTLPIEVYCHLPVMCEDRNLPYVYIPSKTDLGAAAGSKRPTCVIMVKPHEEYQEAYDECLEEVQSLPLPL
T1 sequence (Q9NY12 whole entry partner): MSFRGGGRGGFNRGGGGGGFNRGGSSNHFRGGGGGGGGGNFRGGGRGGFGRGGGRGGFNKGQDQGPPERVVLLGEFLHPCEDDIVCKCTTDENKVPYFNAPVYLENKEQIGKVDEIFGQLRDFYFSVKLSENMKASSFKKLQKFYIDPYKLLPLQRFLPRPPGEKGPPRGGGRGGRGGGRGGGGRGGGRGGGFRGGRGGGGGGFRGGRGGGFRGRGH
T1 sequence (Q9BUR4 whole entry partner): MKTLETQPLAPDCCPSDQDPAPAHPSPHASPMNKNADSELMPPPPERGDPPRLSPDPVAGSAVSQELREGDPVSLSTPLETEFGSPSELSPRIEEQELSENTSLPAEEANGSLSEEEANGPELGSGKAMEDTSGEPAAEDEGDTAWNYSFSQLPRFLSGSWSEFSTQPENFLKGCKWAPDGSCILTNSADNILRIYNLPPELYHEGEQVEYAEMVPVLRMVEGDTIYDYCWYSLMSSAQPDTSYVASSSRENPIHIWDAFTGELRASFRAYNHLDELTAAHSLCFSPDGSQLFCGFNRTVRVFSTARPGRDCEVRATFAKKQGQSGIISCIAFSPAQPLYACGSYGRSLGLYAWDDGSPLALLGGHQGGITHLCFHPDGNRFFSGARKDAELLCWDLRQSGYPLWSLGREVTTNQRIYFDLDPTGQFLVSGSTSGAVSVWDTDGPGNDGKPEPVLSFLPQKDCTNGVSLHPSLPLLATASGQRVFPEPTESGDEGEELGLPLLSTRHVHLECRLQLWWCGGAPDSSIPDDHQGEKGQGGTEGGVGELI

This assay addresses T1, telomerase in nuclear extracts from HeLa cells (Homo sapiens, UniProt O14746).
T1 construct: The activity of telomerase in nuclear extracts from HeLa cells; endogenous in cells; host or cells: HeLa-S3 nuclear extract (ATCC CCL-2.2), prepared according to Dignam
Nature of the assay: Telomerase test: activity of telomerase in nuclear extracts from HeLa cells (method of Morin). Particulars: concentration of inhibitor which inhibits the telomerase activity by 50%; HeLa nuclear extract, 120 minutes at 30° C., Phospho-Imager quantification. Format: biochemical. The protocol: The inhibiting effect of the carboxylic acid amides of general formula I on telomerase was investigated as follows: […]
1. Preparation of Nuclear Extracts from HeLa Cells:
Nuclear extracts were prepared according to Dignam (Dignam et al. in Nucleic Acids Res. 11, 1475-1489 (1983)). All the steps were carried out at 4° C., all the equipment and solutions were pre-cooled to 4° C. At least 1×10^9 HeLa-S3 cells growing in suspension culture (ATCC catalogue number CCL-2.2) were harvested by centrifuging for 5 minutes at 1000× g and washed once with PBS buffer ([…]; 2.7 mM KCl; 8.1 mM Na2HPO4; 1.5 mM KH2PO4). After the cell volume had been determined, the cells were suspended in 5 times the volume of hypotonic buffer (10 mM HEPES/KOH, pH 7.8; 10 mM KCl; 1.5 mM MgCl2) and then left for 10 minutes at 4° C. After centrifuging for 5 minutes at 1000× g the cell pellet was suspended in twice the volume of hypotonic buffer in the presence of 1 mM DTE and 1 mM PMSF and broken up with a Dounce homogeniser. The homogenised material was made isotonic with 0.1 volume of 10-fold saline buffer (300 mM HEPES/KOH, pH 7.8; 1.4 M KCl; 30 mM MgCl2). The cell nuclei were separated from the ingredients of the cytoplasm by centrifuging and then suspended in twice the volume of nuclear extraction buffer (20 mM HEPES/KOH, pH 7.9; 420 mM KCl; 1.5 mM MgCl2; 0.2 mM EDTA; 0.5 mM DTE; 25% glycerol). The nuclei were broken up using a Dounce homogeniser and incubated for 30 minutes at 4° C. with gentle stirring. Any insoluble ingredients were removed by centrifuging for 30 minutes at 10.000 rpm (SS-34 Rotor). Then the nuclear extract was dialysed for 4-5 hours against AM-100 buffer (20 mM tris/HCl, pH 7.9; 100 mM KCl; 0.1 mM EDTA; 0.5 mM DTE; 20% glycerol). The nuclear extracts obtained were frozen in liquid nitrogen and stored at −80° C.
The activity of telomerase in nuclear extracts from HeLa cells was determined using the method described by Morin (Morin in Cell 59, 521-529 (1989)). […] If the inhibition constant of potential telomerase inhibitors was to be determined, these were also added to the telomerase reaction in a concentration range of from 1 nM to 100 μM.
The reaction was then stopped by the addition of 50 μl of RNase stop buffer (10 mM tris/HCL, pH 8.0; 20 mM EDTA; 0.1 mg/ml of RNase A 100 U/ml of RNase T1; 1000 cpm of an α-^32P-dGTP labelled, 430 bp DNA fragment) and incubation was continued for a further 15 minutes at 37° C. Proteins present in the reaction mixture were cleaved by the addition of 50 μl of proteinase K buffer (10 mM tris/HCL, pH 8.0; 0.5% SDS; 0.3 mg/ml of proteinase K) and subsequent incubation for 15 min at 37° C. The DNA was purified by extracting twice with phenol-chloroform and precipitated by adding 2.4 M ammonium acetate; 3 μg tRNA and 750 μl ethanol. Then the precipitated DNA was washed with 500 μl of 70% ethanol, dried at ambient temperature, taken up in 4 μl of formamide probe buffer (80% (V/V) formamide; 50 mM of tris-borate, pH 8.3; 1 mM EDTA; 0.1 (w/v) of xylene cyanol; 0.1% (w/v) bromophenol blue) and separated by electrophoresis on a sequence gel (8% polyacrylamide, 7 M urea, 1× TBE buffer). The DNA synthesised by telomerase in the presence or absence of potential inhibitors was identified and quantified by Phospho-Imager Analysis (Molecular Dynamics) and in this way the concentration of inhibitor which inhibits the telomerase activity by 50% (IC50) was determined.
One may read the IC50 as the concentration that inhibits the measured activity by half. With `C/C(=C\C(=O)Nc1ccccc1C(=O)O)c1ccc(Cl)c(Cl)c1` [Example 10, trans-3-(3,4-dichlorophenyl)-but-2-enoic acid-N-(2-carboxy-phenyl)-amide], the IC50 came to 5000 nM.

Molecule `COc1cc(C(=O)O)c(NC(=O)/C=C(\C)c2ccc(Cl)c(Cl)c2)cc1C` [Example 17, trans-3-(3,4-dichlorophenyl)-but-2-enoic acid-N-(2-carboxy-4-methoxy-5-methyl-phenyl)-amide] showed an IC50 of 1000 nM. Consider `C/C(=C\C(=O)Nc1ccccc1C(=O)O)c1ccc2ccccc2c1` [Example 18, trans-3-(naphth-2-yl)-but-2-enoic acid-N-(2-carboxy-phenyl)-amide], for which the half-inhibitory concentration (IC50) turned out to be 40 nM.

Molecule `COc1cc(NC(=O)/C=C(\C)c2ccc3ccccc3c2)c(C(=O)O)cc1OC` [Example 28, trans-3-(naphth-2-yl)-but-2-enoic acid-N-(2-carboxy-4,5-dimethoxy-phenyl)-amide] came in with an IC50 of 35 nM. `C/C(=C\C(=O)Nc1cc(Cl)ccc1C(=O)O)c1ccc2ccccc2c1` [Example 29, trans-3-(naphth-2-yl)-but-2-enoic acid-N-(2-carboxy-5-chloro-phenyl)-amide] showed a concentration for half-maximal inhibition (IC50) of 550 nM. For the molecule `C/C(=C\C(=O)Nc1ccc(F)cc1C(=O)O)c1ccc2ccccc2c1` [Example 31, trans-3-(naphth-2-yl)-but-2-enoic acid-N-(2-carboxy-4-fluoro-phenyl)-amide], it took 100 nM to reach half-maximal inhibition (IC50).
